Measurements: PubChem BioAssay AID743317 (Broad Institute, 2014)
Inconclusive results are not listed. Calls of active or inactive are those of the source.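 Rule for the calls: active = fitted curve reaches 40% activation at or below the top valid dose, and every replicate test is called active; inconclusive = replicate tests disagree, some active and some inactive; inactive = all replicate tests inactive, including activity in the wrong direction.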

target: Endoplasmic reticulum aminopeptidase 1 (Homo sapiens) (UniProt Q9NZ08); test: ERAP1 aminopeptidase activity change, dose response, biochemical, fluorescence, cherry-pick (AID 743317); conditions: ERAP1 enzyme, Leu-AMC fluorescence, 60 min
Sequence (Q9NZ08 whole entry, looked up): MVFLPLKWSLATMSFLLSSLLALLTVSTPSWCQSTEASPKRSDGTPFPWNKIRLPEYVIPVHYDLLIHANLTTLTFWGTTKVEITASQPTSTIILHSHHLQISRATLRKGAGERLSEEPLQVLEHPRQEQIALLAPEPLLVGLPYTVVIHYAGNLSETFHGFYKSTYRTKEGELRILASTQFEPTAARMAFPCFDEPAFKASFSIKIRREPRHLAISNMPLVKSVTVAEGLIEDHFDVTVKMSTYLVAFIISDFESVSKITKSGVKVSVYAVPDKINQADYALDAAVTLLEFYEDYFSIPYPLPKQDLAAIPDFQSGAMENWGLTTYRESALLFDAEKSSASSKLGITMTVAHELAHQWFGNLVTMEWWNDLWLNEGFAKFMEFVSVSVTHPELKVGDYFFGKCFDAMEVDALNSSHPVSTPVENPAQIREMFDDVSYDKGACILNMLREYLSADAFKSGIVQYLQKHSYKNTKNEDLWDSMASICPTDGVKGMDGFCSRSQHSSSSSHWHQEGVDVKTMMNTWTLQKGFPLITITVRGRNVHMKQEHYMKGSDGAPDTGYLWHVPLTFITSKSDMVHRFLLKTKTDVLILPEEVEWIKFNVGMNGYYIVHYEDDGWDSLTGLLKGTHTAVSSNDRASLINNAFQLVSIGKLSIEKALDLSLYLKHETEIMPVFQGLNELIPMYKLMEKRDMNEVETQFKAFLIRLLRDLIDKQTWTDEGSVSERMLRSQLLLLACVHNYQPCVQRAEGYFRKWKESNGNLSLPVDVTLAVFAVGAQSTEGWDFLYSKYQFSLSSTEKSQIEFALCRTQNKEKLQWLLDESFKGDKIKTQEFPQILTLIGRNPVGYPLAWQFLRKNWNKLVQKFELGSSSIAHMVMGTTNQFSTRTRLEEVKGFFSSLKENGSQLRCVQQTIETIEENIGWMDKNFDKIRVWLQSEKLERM

Compound	AC40 [µM]
CCn1cc(CN2CCCC(C(=O)Nc3ccc(-c4nc5ccccc5[nH]4)cc3)C2)c(C)n1 (stereo unspecified)	3.5
CCCN(C)C[C@@H]1OCCCC[C@@H](C)Oc2ccc(NS(=O)(=O)c3ccc(OC)cc3)cc2C(=O)N([C@H](C)CO)C[C@@H]1C	0.812
C[C@@H]1CCCCO[C@@H](CN(C)C(=O)CCC(F)(F)F)[C@@H](C)CN([C@@H](C)CO)C(=O)c2cc(NS(=O)(=O)c3ccc(Cl)cc3)ccc2O1	0.191
COc1ccc(CN(C)C[C@H]2OCCCC[C@@H](C)Oc3ccc(NS(=O)(=O)c4cccs4)cc3C(=O)N([C@@H](C)CO)C[C@H]2C)cc1	1.11
Cc1ccc(S(=O)(=O)c2cc3ccc(O)cc3oc2=O)cc1C	2.99
CCCN(C)C[C@@H]1OCCCC[C@H](C)Oc2ccc(NC(=O)Nc3ccc(F)cc3)cc2C(=O)N([C@H](C)CO)C[C@@H]1C	4.37
C[C@@H]1CN([C@H](C)CO)C(=O)c2cc(NC(=O)Nc3ccc(F)cc3)ccc2O[C@H]1CN(C)Cc1ccc(C(=O)O)cc1	0.484
COc1ccc(CN(C)C[C@@H]2OCCCC[C@@H](C)Oc3ccc(NS(=O)(=O)c4c(C)noc4C)cc3C(=O)N([C@@H](C)CO)C[C@@H]2C)cc1	1.88
CCN(CC)c1ccc2c(C)c(Cl)c(=O)oc2c1	8.19
CCCN(C)C[C@@H]1OCCCC[C@@H](C)Oc2ccc(NS(=O)(=O)c3ccccc3)cc2C(=O)N([C@H](C)CO)C[C@@H]1C	1.04
COc1ccc(NC(=O)Nc2cccc3c2O[C@H](CN(C)Cc2ccc(C(=O)O)cc2)[C@H](C)CN([C@H](C)CO)C3=O)cc1	5.25
O=C(C[C@H]1CC[C@H]2[C@@H](COC[C@@H](O)CN2C(=O)Nc2cccc(Cl)c2)O1)N1CCCCC1	0.211
COc1ccc(C2=NN(c3ccc(C(=O)O)cc3)C(c3ccc(OC)c(OC)c3)C2)cc1 (stereo unspecified)	0.442
C[C@@H]1CCCCO[C@H](CN(C)Cc2ccccc2)[C@H](C)CN([C@H](C)CO)C(=O)c2cc(NS(=O)(=O)c3ccccc3)ccc2O1	0.358
C[C@@H]1CCCCO[C@@H](CN(C)C)[C@@H](C)CN([C@@H](C)CO)C(=O)c2cc(NS(=O)(=O)c3ccc(F)cc3)ccc2O1	0.454
CCCN(C)C[C@@H]1OCCCC[C@@H](C)Oc2ccc(NS(=O)(=O)c3cccs3)cc2C(=O)N([C@H](C)CO)C[C@@H]1C	0.107

Compound	AC40 [µM]
Cc1noc(C)c1NC(=O)N(C)C[C@@H]1Oc2c(NC(=O)Nc3ccccc3)cccc2C(=O)N([C@H](C)CO)C[C@@H]1C	6.45
CC1CN(Cc2cc(=O)oc3cc(O)c(Cl)cc23)CC(C)O1 (stereo unspecified)	3.4
COc1ccc(CN(C)C[C@H]2OCCCC[C@@H](C)Oc3ccc(NS(=O)(=O)c4cccs4)cc3C(=O)N([C@H](C)CO)C[C@H]2C)cc1	1.23
C[C@@H]1CCCCO[C@H](CN(C)Cc2ccccc2)[C@H](C)CN([C@@H](C)CO)C(=O)c2cc(NS(=O)(=O)c3cccs3)ccc2O1	0.607
C[C@@H]1CCCCO[C@@H](CN(C)C)[C@@H](C)CN([C@H](C)CO)C(=O)c2cc(NS(=O)(=O)c3ccc(Cl)cc3)ccc2O1	0.381
C[C@H](CO)N1C[C@H](C)[C@H](CN(C)CC2CCCCC2)Oc2c(NC(=O)Nc3ccc(C(F)(F)F)cc3)cccc2C1=O	0.565
Cc1ccccc1-c1ccc2c(c1)O[C@@H](CN(C)Cc1ccc(C(=O)O)cc1)[C@@H](C)CN([C@H](C)CO)S2(=O)=O	4.29
CCCN(C)C[C@@H]1OCCCC[C@@H](C)Oc2ccc(NS(=O)(=O)c3c(C)noc3C)cc2C(=O)N([C@H](C)CO)C[C@@H]1C	1.24
C[C@H]1CN([C@@H](C)CO)C(=O)c2cccc(NC(=O)Nc3ccc(C(F)(F)F)cc3)c2O[C@@H]1CN(C)C	1.41
Cc1cc(=O)oc2cc(OCC(=O)N3CCN(C(C)c4ccccc4)CC3)c(Cl)cc12 (stereo unspecified)	6.22
O=c1cc(CN2CCN(Cc3ccccc3)CC2)c2ccc(O)cc2o1	1.68
C[C@@H]1CCCCO[C@@H](CN(C)Cc2ccccc2)[C@@H](C)CN([C@H](C)CO)C(=O)c2cc(NS(=O)(=O)c3cccs3)ccc2O1	0.158
O=C(O)c1cccc(NC(=O)c2ccccc2NC(=O)c2cccc([N+](=O)[O-])c2)c1	0.967
C[C@@H]1CCCCO[C@H](CN(C)Cc2ccc(C(=O)O)cc2)[C@H](C)CN([C@@H](C)CO)C(=O)c2cc(NC(=O)Nc3ccc(C(F)(F)F)cc3)ccc2O1	0.0919
C[C@H](CO)N1C[C@H](C)[C@@H](CN(C)CC2CC2)Oc2c(NC(=O)Nc3ccc(C(F)(F)F)cc3)cccc2C1=O	0.757
COc1ccc(CN(C)C[C@@H]2OCCCC[C@H](C)Oc3ccc(NS(=O)(=O)c4cccs4)cc3C(=O)N([C@@H](C)CO)C[C@@H]2C)cc1	1.19

same assay, conditions: ERAP1 enzyme, Leu-AMC fluorescence, 60 min; at 5.6 µM (top of the series)

Compound	activity increase (activation)
CN1CCN(Cc2c(O)ccc3cc(-c4ccccn4)c(=O)oc23)CC1	-103% (inactive)
CCCc1cc(=O)oc2c(CN3CCN(C)CC3)c(O)ccc12	-44.3% (inactive)

same assay, conditions: ERAP1 enzyme, Leu-AMC fluorescence, 60 min; at 11 µM (top of the series)

Compound	activity increase (activation)
O=C(O)c1ccccc1NS(=O)(=O)c1cccc(-n2sc3ccccc3c2=O)c1	-98.6% (inactive)
O=c1ccc2cc(O)c(O)cc2o1	-53.9% (inactive)
CCN(CC)Cc1c(O)c(Cl)cc2c(C)cc(=O)oc12	-83.4% (inactive)
C/C(=N\NC(=O)CC#N)c1cc2ccc(O)cc2oc1=O	-67.1% (inactive)
C[C@@H]1CN([C@@H](C)CO)C(=O)c2cccc(NC(=O)Nc3ccc(C(F)(F)F)cc3)c2O[C@@H]1CN(C)C	30.6% (inactive)
CC(C)[C@@H](C(=O)N[C@@H](CCc1ccc(O)cc1)C(=O)O)N(C)C(=O)[C@H](CO)NC(=O)[C@@H](O)[C@H](N)CCCCCCCCl	-103% (inactive)
CN1[C@@H]2c3ccc(/C=C/c4ccccc4)c(=O)n3C[C@@H]2[C@@H](CO)[C@@H]1C(=O)NC1CCCC1	-14.6% (inactive)
Cc1cc(=O)oc2c(CN3CCCC3)c(O)c(Cl)cc12	-73.8% (inactive)
Cc1cc(N(C)Cc2ccccc2)nc2cc(O)ccc12	-54% (inactive)
CN1c2ccc(-c3ccc(C#N)cc3)cc2[C@@H]2[C@@H](CCN2C(=O)CC2CC2)[C@@H]1CO	-8.63% (inactive)
Cc1cc(=O)oc2c(CN3CCN(CCO)CC3)c(O)ccc12	-61.9% (inactive)
Cc1c(C)c2ccc(O)c(CN3CCCC3)c2oc1=O	-57% (inactive)
CCN1CCN(Cc2c(O)ccc3c(C)cc(=O)oc23)CC1	-54.6% (inactive)
Cc1cc(=O)oc2c(CN3CCN(C)CC3)c(O)c(Cl)cc12	-69.3% (inactive)
CCOC(=O)C[n+]1ccc2c([nH]c3ccccc32)c1C	-38.3% (inactive)
O=c1ccc2cc(O[C@@H]3O[C@H](CO)[C@@H](O)[C@H](O)[C@H]3O)c(O)cc2o1	-98.9% (inactive)
CC(C)(C)c1cc(N2CCOCC2)n2ncc(-c3ccccc3)c2n1	-42% (inactive)
CSC1=NS(=O)(=O)c2c(C)nn(C)c2S1	-42.5% (inactive)
CCc1cc(=O)oc2c(CN3CCN(C)CC3)c(O)ccc12	-65.3% (inactive)
COc1ccc(-c2cc3ccc(O)cc3oc2=O)cc1OC	-92.7% (inactive)
Cc1cc(=O)oc2c(CN3CCCC3)c(O)ccc12	-44% (inactive)
O=C(CSc1cn[nH]n1)Nc1cccc(C(=O)O)c1	-63.3% (inactive)
